Assay results: PMC12735951, “A Bioorthogonal TCO–Tetrazine-Based Pretargeted PET/NIRF Platform Enabling High-Contrast Tumor Imaging” (Pharmaceuticals, 2025)
One block for each compound: values may come before it.

Legend:
U87MG xenograft = assay: In vivo NIR fluorescence imaging, U87MG xenograft-bearing nude mice
Protocol: (§1) To evaluate the tumor-targeting characteristics of DZ-TCO derivatives, DZ-1-TCO, DZ-Lys-TCO, and DZ-Lys-PEG4-TCO were administered to HeLa and U87MG xenograft-bearing nude mice (100 μL of 50 μM, n = 3 per group). In vivo fluorescence imaging was conducted at 4, 24, 48, 72, and 96 h after TCO compound injection.
(§2) Female BALB/c nude mice (4–6 weeks old; 14–20 g), obtained from Beijing Vital River Laboratory Animal Technology Co., Ltd. (Beijing, China), were subcutaneously inoculated with 5 × 10^6 HeLa or U87MG cells suspended in 100 μL PBS into the right flank. Tumor growth was monitored every 2–3 days using digital calipers, and experiments were initiated when tumor volumes reached approximately 150–300 mm^3, calculated using the formula Volume = (length × width^2)/2.
(§3) To assess the tumor-targeting capability and clearance kinetics of DZ-TCO precursors, 100 µL of each compound ([…] in PBS) was administered intravenously via the tail vein. Whole-body fluorescence imaging was performed at predetermined time points (4, 24, 48, 72, and 96 h post-injection) using the IVIS Spectrum imaging system (PerkinElmer, Shelton, CT, USA) (excitation/emission, 745/820 nm) with automatic subtraction of background fluorescence during the acquisition. Fluorescence signals were acquired under standardized exposure settings, and region-of-interest (ROI) analysis was conducted using Living Image software version 4.4 (PerkinElmer) to quantify fluorescence intensity in the tumor and major organs.

HeLa xenograft = assay: In vivo NIR fluorescence imaging, HeLa xenograft-bearing nude mice
Protocol: as §1, §2, §3

HeLa and U87MG xenograft = assay: In vivo NIR fluorescence imaging, results not split by tumor model (organs, tumor-to-background ratios, retention); set-up: species or system mice
Protocol: as §1, §2
as §3, with “([…])” for “(4, 24, 48, 72, and 96 h post-injection)”

[1] = In vitro stability in 50% fetal bovine serum (FBS); type: in vitro ADME; details: for radiochemical purity in FBS at 4 h: 50% FBS, 37 °C; for radiochemical stability after 4 h: PBS and serum
Protocol: (§4) ^68GaCl3 (5 mL, 20 mCi) and DOTA-Tz (50 μg) were mixed in a reaction vial. The pH was adjusted to 4.0–4.5 by adding 1 M sodium acetate, and the mixture was heated at 95 °C for 15 min without further purification. Radiochemical purity was confirmed by RP-HPLC. In vitro stability of ^68Ga-DOTA-Tz was assessed by incubating aliquots in 50% FBS or 50% PBS at 37 °C for 30 min, 1 h, 2 h, and 4 h. The partition coefficient (log p) was determined by mixing 1 mL of n-octanol with 1 mL of PBS containing the tracer, vortexing, and centrifuging at 3000 rpm for 5 min. Samples (0.1 mL) from both the organic and aqueous phases were withdrawn, and their radioactivity was measured using a γ-counter (PerkinElmer Wizard, Shelton, CT, USA).

[2] = In vitro stability in 50% PBS; type: physicochemical; details: 37 °C
Protocol: as §4

HeLa tumors = assay: Pretargeting biodistribution (γ-counter) of DZ-Lys-TCO and ^68Ga-DOTA-H-Tz; type: in vivo, mice; details: DZ-Lys-TCO 48 h pretargeting interval
Protocol: To assess the in vivo biodistribution of the pretargeting system, female BALB/c nude mice bearing HeLa tumors (n = 3) were first injected intravenously with DZ-TCO. After 48 h, 0.74 MBq of ^68Ga-DOTA-H-Tz was administered via the tail vein. At 30, 60, and 120 min post-injection, mice were euthanized, and tissues including blood, tumor, liver, kidney, spleen, heart, lung, muscle, stomach, intestines, brain, and bone were excised, weighed, and counted using a γ-counter (Wizard2, PerkinElmer, Shelton, CT, USA). Radiotracer uptake was expressed as the percentage of injected dose per gram of tissue (%ID/g). Tumor-to-organ uptake ratios were calculated accordingly.

[3] = Partition coefficient (log p), n-octanol/PBS; type: physicochemical
Protocol: as §4

subcutaneous tumors = assay: Pretargeted PET imaging with DZ-Lys-TCO and ^68Ga-DOTA-H-Tz at different intervals; type: in vivo, mice; details: DZ-Lys-TCO pre-injected
Protocol: To evaluate in vivo tumor targeting and bioorthogonal reaction kinetics, female BALB/c nude mice bearing subcutaneous tumors were intravenously injected with […] of each DZ-TCO precursor in phosphate-buffered saline (PBS). At predefined intervals (24, 48, or 72 h post-injection), […] of ^68Ga-labeled tetrazine probe (^68Ga-DOTA-Me-Tz or ^68Ga-DOTA-H-Tz; 3.7 MBq in PBS) was administered via the tail vein. PET imaging was performed using the IRIS system (Inviscan, Paris, France) at 30 min, 1 h, and 2 h post-injection under 2% isoflurane anesthesia. Image reconstruction and quantitative analysis were conducted using Inveon Research Workplace and OsiriX MD software version 10.0.4. Regions of interest (ROIs) were manually defined over tumors and major organs, and radiotracer uptake was expressed as the percentage of the injected dose per gram of tissue (%ID/g).

tumor fluorescence intensity (U87MG xenograft; 4 h post-injection): 5.23 × 10^9 p/s/cm^2/sr | tumor fluorescence intensity (U87MG xenograft; 24 h post-injection): 7.18 × 10^9 p/s/cm^2/sr | tumor fluorescence intensity (U87MG xenograft; 48 h post-injection): 4.30 × 10^9 p/s/cm^2/sr | tumor fluorescence intensity (HeLa xenograft; 4 h post-injection): 2.19 × 10^9 p/s/cm^2/sr | tumor fluorescence intensity (HeLa xenograft; 24 h post-injection): 7.06 × 10^9 p/s/cm^2/sr | tumor fluorescence intensity (HeLa xenograft; 48 h post-injection): 5.43 × 10^9 p/s/cm^2/sr | tumor-to-background fluorescence ratio (HeLa and U87MG xenograft; 4 h): 368.67 ± 151.28 | fluorescence signal intensity, kidneys (HeLa and U87MG xenograft; 48 h): 3.95 × 10^8 p/s/cm^2/sr | fluorescence signal intensity, liver (HeLa and U87MG xenograft; 48 h): 5.04 × 10^8 p/s/cm^2/sr | fluorescence signal intensity, lungs (HeLa and U87MG xenograft; 48 h): 2.02 × 10^8 p/s/cm^2/sr | fluorescence signal intensity, spleen (HeLa and U87MG xenograft; 48 h): 8.77 × 10^7 p/s/cm^2/sr | tumor-to-background fluorescence ratio (HeLa and U87MG xenograft; 48 h): 4746.67 ± 100.66 | fluorescence signal intensity, liver (HeLa and U87MG xenograft; 96 h): 4.38 × 10^8 p/s/cm^2/sr | fluorescence in normal tissues (HeLa and U87MG xenograft; 168 h): nearly undetectable | tumor fluorescence signal remained detectable (time post-injection) (HeLa and U87MG xenograft; post-injection): up to 168 h
Structure (SMILES): CC1(C)C(=CC=C2CCCC(C=CC3=[N+](CCCCS(=O)(=O)[O-])c4ccccc4C3(C)C)=C2Cl)N(CCCCCC(=O)NCCCCC(N)C(=O)NCCCNC(=O)OC2CCC=CCCC2)c2ccccc21 (stereo not shown) [DZ-Lys-TCO]

radiochemical purity in FBS at 4 h [1]: 98.53 ± 0.58% | radiochemical stability after 4 h [1]: > 85% | radiochemical purity in PBS after 4 h [2]: 98.76 ± 0.52% | Blood uptake (HeLa tumors; 30 min): 2.96 ± 0.11 %ID/g | Bone uptake (HeLa tumors; 30 min): 0.64 ± 0.27 %ID/g | Brain uptake (HeLa tumors; 30 min): 0.37 ± 0.30 %ID/g | Heart uptake (HeLa tumors; 30 min): 1.34 ± 0.53 %ID/g | Intestine uptake (HeLa tumors; 30 min): 1.97 ± 0.38 %ID/g | Kidney uptake (HeLa tumors; 30 min): 10.71 ± 1.34 %ID/g | Lung uptake (HeLa tumors; 30 min): 2.38 ± 1.41 %ID/g | Muscle uptake (HeLa tumors; 30 min): 0.97 ± 0.21 %ID/g | Spleen uptake (HeLa tumors; 30 min): 1.03 ± 0.08 %ID/g | Stomach uptake (HeLa tumors; 30 min): 1.16 ± 0.13 %ID/g | T/B (tumor-to-blood ratio) (HeLa tumors; 30 min): 1.18 ± 0.55 | T/K (tumor-to-kidney ratio) (HeLa tumors; 30 min): 0.32 ± 0.14 | T/L (tumor-to-liver ratio) (HeLa tumors; 30 min): 1.18 ± 0.28 | liver uptake (HeLa tumors; 30 min): 2.95 ± 1.04 %ID/g | tumor uptake (HeLa tumors; 30 min): 3.53 ± 1.76 %ID/g | Blood uptake (HeLa tumors; 60 min): 1.05 ± 0.29 %ID/g | Bone uptake (HeLa tumors; 60 min): 0.52 ± 0.20 %ID/g | Brain uptake (HeLa tumors; 60 min): 0.10 ± 0.03 %ID/g | Heart uptake (HeLa tumors; 60 min): 0.78 ± 0.58 %ID/g | Intestine uptake (HeLa tumors; 60 min): 0.59 ± 0.08 %ID/g | Kidney uptake (HeLa tumors; 60 min): 6.54 ± 1.95 %ID/g | Lung uptake (HeLa tumors; 60 min): 0.50 ± 0.18 %ID/g | Muscle uptake (HeLa tumors; 60 min): 0.38 ± 0.15 %ID/g | Spleen uptake (HeLa tumors; 60 min): 0.91 ± 0.70 %ID/g | Stomach uptake (HeLa tumors; 60 min): 0.83 ± 0.30 %ID/g | T/B (tumor-to-blood ratio) (HeLa tumors; 60 min): 1.63 ± 0.53 | T/K (tumor-to-kidney ratio) (HeLa tumors; 60 min): 0.25 ± 0.05 | T/L (tumor-to-liver ratio) (HeLa tumors; 60 min): 1.08 ± 0.27 | T/M (tumor-to-muscle ratio) (HeLa tumors; 60 min): 5.11 ± 3.51 | liver uptake (HeLa tumors; 60 min): 1.56 ± 0.49 %ID/g | tumor uptake (HeLa tumors; 60 min): 1.72 ± 0.87 %ID/g | Blood uptake (HeLa tumors; 120 min): 0.64 ± 0.18 %ID/g | Bone uptake (HeLa tumors; 120 min): 0.08 ± 0.03 %ID/g | Brain uptake (HeLa tumors; 120 min): 0.03 ± 0.01 %ID/g | Heart uptake (HeLa tumors; 120 min): 0.17 ± 0.03 %ID/g | Intestine uptake (HeLa tumors; 120 min): 0.11 ± 0.08 %ID/g | Kidney uptake (HeLa tumors; 120 min): 3.28 ± 1.00 %ID/g | Lung uptake (HeLa tumors; 120 min): 0.14 ± 0.02 %ID/g | Muscle uptake (HeLa tumors; 120 min): 0.07 ± 0.02 %ID/g | Spleen uptake (HeLa tumors; 120 min): 0.24 ± 0.06 %ID/g | Stomach uptake (HeLa tumors; 120 min): 0.10 ± 0.05 %ID/g | T/B (tumor-to-blood ratio) (HeLa tumors; 120 min): 1.39 ± 0.74 | T/K (tumor-to-kidney ratio) (HeLa tumors; 120 min): 0.26 ± 0.10 | T/L (tumor-to-liver ratio) (HeLa tumors; 120 min): 1.07 ± 0.05 | T/M (tumor-to-muscle ratio) (HeLa tumors; 120 min): 10.92 ± 0.31 | liver uptake (HeLa tumors; 120 min): 0.76 ± 0.23 %ID/g | tumor uptake (HeLa tumors; 120 min): 0.82 ± 0.28 %ID/g | Bone uptake, consistently (HeLa tumors; all time points): < 0.70 %ID/g | log p [3]: −3.57 ± 0.21 | maximum T/M ratio (subcutaneous tumors; 24 h interval): 5.31 ± 0.48 | liver uptake (subcutaneous tumors; 24 h interval, 30 min p.i.): 2.61 ± 0.53 %ID/g | tumor uptake (subcutaneous tumors; 24 h interval, 30 min p.i.): 2.64 ± 0.73 %ID/g | T/L ratio (subcutaneous tumors; 24 h interval, 60 min p.i.): 1.01 ± 0.08 | liver uptake (subcutaneous tumors; 24 h interval, 60 min p.i.): 1.15 ± 0.16 %ID/g | tumor uptake (subcutaneous tumors; 24 h interval, 60 min p.i.): 1.18 ± 0.25 %ID/g | liver uptake (subcutaneous tumors; 24 h interval, 120 min p.i.): 0.91 ± 0.16 %ID/g | tumor uptake (subcutaneous tumors; 24 h interval, 120 min p.i.): 0.79 ± 0.14 %ID/g | T/L ratio (subcutaneous tumors; 48 h interval): 1.35 ± 0.26 | T/M ratio (highest) (subcutaneous tumors; 48 h interval): 8.30 ± 3.39 | tumor uptake (subcutaneous tumors; 48 h interval, 30 min p.i.): 3.24 ± 0.95 %ID/g | tumor uptake (subcutaneous tumors; 48 h interval, 120 min p.i.): 0.96 ± 0.29 %ID/g | maximum T/M ratio (subcutaneous tumors; 72 h interval): 5.84 ± 1.49 | liver uptake (subcutaneous tumors; 72 h interval, 30 min p.i.): 2.32 ± 0.79 %ID/g | tumor uptake (subcutaneous tumors; 72 h interval, 30 min p.i.): 1.89 ± 0.57 %ID/g | T/L ratio (subcutaneous tumors; 72 h interval, 60 min p.i.): 0.98 ± 0.10 | liver uptake (subcutaneous tumors; 72 h interval, 60 min p.i.): 1.40 ± 0.43 %ID/g | tumor uptake (subcutaneous tumors; 72 h interval, 60 min p.i.): 1.35 ± 0.31 %ID/g | liver uptake (subcutaneous tumors; 72 h interval, 120 min p.i.): 0.97 ± 0.05 %ID/g | tumor uptake (subcutaneous tumors; 72 h interval, 120 min p.i.): 0.91 ± 0.31 %ID/g
Structure (SMILES): O=C([O-])CN1CCN(CC(=O)[O-])CCN(CC(=O)NCCCCNC(=O)Cc2ccc(-c3nncnn3)cc2)CCN(CC(=O)[O-])CC1.[68Ga+3] [^68Ga-DOTA-H-Tz]

radiochemical purity in FBS at 4 h [1]: 85.88 ± 7.55% | radiochemical stability after 4 h [1]: > 85% | radiochemical purity in PBS after 4 h [2]: 94.48 ± 1.48% | log p [3]: −2.87 ± 0.02
Structure (SMILES): Cc1nnc(-c2ccc(OCCOCCOCCOCCNC(=O)CN3CCN(CC(=O)[O-])CCN(CC(=O)[O-])CCN(CC(=O)[O-])CC3)cc2)nn1.[68Ga+3] [^68Ga-DOTA-Me-Tz]
